Data taken from patent US6239284A, “Aromatic tetracyclic compounds of the retinoid type method for preparing and use” (priority 1997, dated 2001).
“Also recorded” adds a separate entry of the source. Where two headings read alike, the source gives them in different places.

How the values were obtained:
[1] = test system: T-47D cells; test: Anti-proliferation effect, estrogen-induced growth of T-47D cells; assay type: cell-based, human; conditions: for Effect on growth of T-47D cells in words: estrogenic conditions
Experimental: (§1) So as to test the anti-proliferation effect of the retinoids, growth experiments under oestrogenic conditions were carried out on cells MCF-7 and T-47D. These are the human estrogen-dependent mammary cancer cells which express the receptor to RE estrogens. The effect of the molecules is evaluated after 7 days of culture in oestrogenic conditions (estradiol 10^-9 M) by dosing the cellular DNA. The cells are distributed in 24 well plates at a density of 2×10^4 cells per well. The tests with the different retinoids are carried out in triplicate and the culture medium is changed after 4 days of growth.
(§2) The effect of the retinoids on the growth of MCF-7 and T-47D cells is evaluated after 7 days of culture in the presence of 10^-9 M estradiol by dosing the cellular DNA.

[2] = test system: MCF-7 cells; test: Anti-proliferation effect, estrogen-induced growth of MCF-7 cells; assay type: cell-based, human; conditions: for Effect on growth of MCF-7 cells in words: estrogenic conditions
Experimental: as §1, §2

[3] = test system: AP-1; test: Anti-AP-1 effect, MTLN cellular lineage (MCF-7 with (TRE)3-tk-Luc) activated by TPA; assay type: cell-based, human; conditions: for Anti-AP-1 effect, Inhibition (%): 10^-7 M TPA, range of several experiments; for inhibition at 1 µM: Homo sapiens, AP1, read-out: Inhibition of AP-1 route (MTLN)
Experimental: The anti-factor AP-1 transrepressor effect of retinoids is determined using the MTLN lineage, coming from MCF-7 cells transfected in a stable fashion by a vector p(TRE)3 -tk-Luc which places the expression of the gene of luciferase under the control of […]. TPA activates the AP-1 complex formed from proteins of the family of nuclear proto-oncogenes (c-Jun and c-Fos). […] The experiments ware made with the MTLN cells activated by 10^-7 M TPA.
The effect of the compounds on the MTLN cells activated by 10^-7 M TPA is expressed as a percentage. […] The inhibitive properties of the products are calculated after deduction of the base activity of the cells. The percentages reported correspond to a range of inhibitions determined from several experiments.

[4] = test system: ERE; test: Anti-estrogenic effect, MELN cellular lineage (MCF-7 with ERE-βGlob-Luc) activated by estradiol; assay type: cell-based, human
Experimental: MCF-7 cells express RARα,γ and RXRα. The transfection of MCF-7 cells by an estrogen-dependent gene (ERE-βGlob-Luc) has permitted the establishment of the MELN cellular lineage, used to determine the anti-oestrogenic activity of the retinoids. These cells contain the gene of the luciferase under the transcriptional control of the promoter of the βGlobine and of the response element ERE isolated from the gene of chicken vitelogenine A2. The experiments are carried out with MELN cells activated by 10^-9 M estradiol. The level of base activity of the MELN cells is obtained with the anti-estrogen 1 μM 4-OH-tamoxifen (hydroxytamoxifen).
The effect of the products tested on the cells activated by 10^-9 M estradiol is expressed as a percentage, the level of base activity being deducted.

[5] = test system: RARα; test: Transactivation of chimerical receptor RARα-ERcassette, transient transfection of HeLa cells; assay type: cell-based; conditions: for RAR-ERcassette RARα transactivation (%): 100% = TTNPB 10^-8 M
Text: (§3) The HeLa cells are co-transfected by a plasmid which codes for a retinoic receptor in which the C domain of bonding to the DNA is substituted by that of the receptor to RE estrogens, and a plasmid which places the expression of the luciferase under the control of an ERE (Element of Response to Estrogens). The expressed chimerical receptors are designated as RARα-ERcassette, RARβ-ERcassette, RARγ-ERcassette and RXRα-ERcassette. The A, B, D, E and F regions of the natural receptor are preserved as well as the transcriptional co-operation between the activation domains AF-1 and AF-2. These transitory transfection experiments follow the method of co-precipitation to calcium phosphate. The HeLa cells are co-transfected by […] of plasmid coding for the chimerical receptor, […] of reporter plasmid and […] of expression vector CMV-β-galactosidase used as an internal control of transfection. 24 hours after the transfection, the cells are incubated for 16 hours with the different effectors.
(§4) In this type of chimerical receptor, the C domain of bonding to the DNA of RAR is substituted by that of the receptor to the RE estrogens. The protein obtained is close to the natural RAR receptor and preserves the transcriptional properties of the AF-1 and AF-2 domains. It modulates the transcription by means of an ERE. This RAR-ERcassette model allows one to observe a transcriptional response to a more physiological ligand.
(§5) The study of the selectivity of the compounds was carried out with the RAR-ERcassette chimerical receptors model.
(§6) On one and the same line in the Table, the cis (Z) compound represents the isomeric structure of the trans (E) compound.

[6] = test system: RARβ; test: Transactivation of chimerical receptor RARβ-ERcassette, transient transfection of HeLa cells; assay type: cell-based; conditions: for RAR-ERcassette RARβ transactivation (%): 100% = TTNPB 10^-8 M
Text: as §3, §4, §5, §6

[7] = test system: RARγ; test: Transactivation of chimerical receptor RARγ-ERcassette, transient transfection of HeLa cells; assay type: cell-based; conditions: 100% = TTNPB 10^-8 M
Text: as §3, §4, §5, §6

[8] = test system: RARE; test: HRL+N transactivation (stably transfected HeLa, RARE reporter, endogenic receptors); assay type: cell-based; conditions: for activation at 1 µM: Table 12
Text: (§7) The cellular lineages HRLN and HRL+N allow one to study the activation of an RARE by endogenic receptors using ligands at physiological concentrations. These lineages derive from HeLa cells transfected in a stable fashion by a reporter gene which places the expression of the gene of the luciferase under the control of a nuclear response element RARE (RARE3 -tk-Luc). The HeLa cells express all the known receptors of the retinoic acid (RARα,β,γ and RXRα,β,γ) with a predominance of RARα and RXRα. The response element RARE used for the HRLN cells corresponds to the sequence of the natural gene of the RARβ receptor (GGTTCAnnnnnAGTTCA). The HRL+N cells comprise the sequence GAGTGAnnnnnCGGTGA.
The HRL+N lineage allows one to visualize a co-activation of the RAR and RXR receptors at the level of the RAR-RXR hetero-dimer.

[9] = test system: RAR; test: RAR-ERcassette model, specificity profile (transient transfection of HeLa cells); assay type: cell-based
Text: as §3, §4, §5

[10] = test system: RARE; test: HRLN transactivation (stably transfected HeLa, RARE3-tk-Luc, endogenic receptors); assay type: cell-based
Text: as §7

[11] = test system: RAR; test: GAL-RAR model, specificity profile (transient transfection of HeLa cells)
Text: (§8) Studies of the transactivational specificity of the retinoids have been carried out by transitory transfection of HeLa cells. Two types of chimerical receptors can then be expressed by the cells. […] The C region (domain of bonding to the DNA) and the A and B regions (AF-1 activation domain) are suppressed.
(§9) These chimerical receptors activated by an agonist specifically stimulate the transcription of the gene of the luciferase present in a co-transfected plasmid ((17M)5-βG-Luc) where 17M is the response element of Gal4.

[12] = test system: RARα; test: Transactivation of chimerical receptor GAL4-RARα, transient transfection of HeLa cells (luciferase)
Text: as §8, §9

[13] = test system: RARβ; test: Transactivation of chimerical receptor GAL4-RARβ, transient transfection of HeLa cells (luciferase)
Text: as §8, §9

[14] = test system: RARγ; test: Transactivation of chimerical receptor GAL4-RARγ, transient transfection of HeLa cells (luciferase)
Text: as §8, §9

[15] = Homo sapiens, -6 log M (10^-6 M), 10^-9 M estradiol, read-out: Anti-oestrogenic effect, Inhibition (%)
[16] = Homo sapiens, read-out: Anti-oestrogenic effect, Inhibition (%)

Row | Structure (SMILES) | Anti-AP-1 effect, Inhibition (%) ([3]; -7 log M) | Anti-AP-1 effect, Inhibition (%) ([3]; -8 log M) | RAR-ERcassette RARα transactivation (%) ([5]; -6 log M (1 μM)) | RARβ transactivation (RAR-ERcassette) in words [6] | RAR-ERcassette RARβ transactivation (%) ([6]; -6 log M (1 μM)) | RAR-ERcassette RARγ transactivation (%) ([7]; -6 log M (1 μM)) | activation at 1 µM ([8]; Homo sapiens, HeLa) [%] | inhibition at 1 µM [3] [%] | inhibition at 1 µM [4, 15] [%] | RAR-ERcassette profile in words [9] | Anti-AP-1 effect (MTLN) in words [3] | GAL-RAR agonist profile in words [11] | GAL4-RARβ activity, % of activity measured for 10^-8 M TTNPB ([13]; Concentration -7 (log M)) [%] | GAL4-RARβ activity, % of activity measured for 10^-8 M TTNPB ([13]; Concentration -8 (log M)) [%] | GAL4-RARγ activity, % of activity measured for 10^-8 M TTNPB ([14]; Concentration -6 (log M)) [%] | GAL4-RARγ activity, % of activity measured for 10^-8 M TTNPB ([14]; Concentration -7 (log M)) [%] | GAL4-RARγ activity, % of activity measured for 10^-8 M TTNPB ([14]; Concentration -8 (log M)) [%] | Effect on growth of T-47D cells in words [1] | Effect on growth of MCF-7 cells in words [2] | HRL+N transactivation in words [8] | also measured
1 | CC1(C)CCC(C)(C)c2cc(C(=O)Nc3ccc(C(=O)O)cc3)ccc21 [Am580, 4-[(5,6,7,8-tetrahydro-5,5,8,8-tetramethyl-2-naphthalenyl)carboxamido]benzoic acid] | 41-48% | 40-46% |  |  |  |  |  |  |  |  |  |  |  |  |  |  |  |  |  |  | inhibition at 1 µM ([1]; Homo sapiens, T47D, 168 h, at 1 μM, 7 days, estradiol 10^-9 M, read-out: T-47D percentage inhibition of growth): 74%; inhibition at 1 µM ([2]; Homo sapiens, MCF7, 168 h, at 1 μM, 7 days, estradiol 10^-9 M, read-out: MCF-7 percentage inhibition of growth): 67%; inhibition at 0.01 µM ([4]; Homo sapiens, -8 log M, 10^-9 M estradiol, read-out: Anti-oestrogenic effect, Inhibition (%)): 36 to 51%
2 | Cc1cc2c(cc1/C=C1/CCc3cc(C(=O)O)ccc31)C(C)(C)CCC2(C)C [CB75403, (Z) 1-[2-(5,6,7,8-tetrahydro-3,5,5,8,8-pentamethyl)naphthalenylmethylene]-2,3-dihydro-1H-indene-5-carboxylic acid] |  |  | 12 | same level of transactivation through the intermediary of RARβ at 0.1 μM and at 1 μM and also at 3 μM | 65 | 68 | 18 | ~30 | 0 | RARβ,γ specificity; also recorded: RARβ,γ selectivity |  |  |  |  |  |  |  |  |  |  | RARα transactivation (RAR-ERcassette) in words [5]: inactive on RARα; RAR-ERcassette RARα transactivation (%) ([5]; -7 log M): 3%; RAR-ERcassette RARβ transactivation (%) ([6]; -7 log M): 68%; RAR-ERcassette RARγ transactivation (%) ([7]; -7 log M): 40%
3 | Cc1cc2c(cc1C(=O)c1ccc(C(=O)O)cc1)C(C)(C)CCC2(C)C [LGD-CB14499] | 17-30% |  |  | transcriptional power appears higher notably through the RARβ-ERcassette |  |  |  |  |  |  | causes an inhibition of the AP-1 route | do not allow one to observe a good transactivation mediated by RAR | 1 | 0 | 13 | 0 | 0 |  |  |  | Emax ([10]; Homo sapiens, HeLa, read-out: HRLN transactivation E max %): 30%; Emax at 1 µM ([8]; Homo sapiens, HeLa): 94%; Anti-estrogenic effect (MELN) in words [4]: inactive; inhibition at 0.1 µM [4, 16]: 0%; inhibition at 1 µM [4, 16]: 0%; GAL4-RARα activity, % of activity measured for 10^-8 M TTNPB ([12]; Concentration -6 (log M)): 17%; GAL4-RARα activity, % of activity measured for 10^-8 M TTNPB ([12]; Concentration -7 (log M)): 4%; GAL4-RARα activity, % of activity measured for 10^-8 M TTNPB ([12]; Concentration -8 (log M)): 1%; GAL4-RARβ activity, % of activity measured for 10^-8 M TTNPB ([13]; Concentration -6 (log M)): 9%
4 | Cc1cc2c(cc1/C=C1/CCc3cc(-c4nnn[nH]4)ccc31)C(C)(C)CCC2(C)C [CB02981, (Z) 5-[1-[2-(5,6,7,8-tetrahydro-3,5,5,8,8-pentamethyl)naphthalenylmethylene]-2,3-dihydro-1H-indenyl]-1H-tetrazole] |  |  | 4 |  | 7 | 0 | 0 | ~20 | 0 | inactive | in association with a RXR agonist, an additive effect of the inhibiting effects of the two molecules is observed; also recorded: dissociating compound and causes inhibition of the AP-1 ring |  |  |  |  |  |  | no effect whatsoever | no effect whatsoever | does not cause transactivation mediated by RAR and RXR | HRLN transactivation in words [10]: inactive; activation at 1 µM ([10]; Homo sapiens, HeLa): 0%
5 | C/C(=C\c1ccc(C(=O)O)cc1)c1ccc2c(c1)C(C)(C)CCC2(C)C [TTNPB] | 29-54% | 26-53% |  |  |  |  |  |  |  |  |  |  |  |  |  |  |  |  |  |  | IC50 ([1]; Homo sapiens, T47D, 168 h, read-out: T-47D IC50 (growth inhibition by 50%)): 3.3 ± 1.1 nM; IC50 ([2]; Homo sapiens, MCF7, 168 h, read-out: MCF-7 IC50 (growth inhibition by 50%)): 0.35 ± 0.07 nM; EC50 ([10]; Homo sapiens, HeLa, read-out: HRLN transactivation EC50): 0.55 ± 0.72 nM; inhibition at 0.01 µM [4, 16]: 30 to 41%; Inhibition in MELN ([4]; RAR selective molecules, 10^-9 M estradiol): ~40%
6 | C=C(c1ccc(C(=O)O)cc1)c1cc2c(cc1C)C(C)(C)CCC2(C)C [LGD1069] |  |  |  | transcriptional power appears higher notably through the RARβ-ERcassette |  |  |  |  |  |  | most effective compound tested in this model | do not allow one to observe a good transactivation mediated by RAR | 5 | 1 | 29 | 8 | 1 | no effect whatsoever on the growth | no effect whatsoever on the growth | more effective than the RAR specific molecules | 
